Results: US12415819B2, “Cu- and Ni-catalyzed decarboxylative borylation reactions” (The Scripps Research Institute, priority 2017, dated 2025)
Where “and” joins values, the source holds several entries; their conditions need not be identical. Equal values may be shown once. Read-outs that look alike come from different tables or passages of the source.

What was measured:
[1] = biological target: T1, human neutrophil elastase (Homo sapiens (Human), UniProt P08246); experiment: Elastase inhibition assay, purified human neutrophil elastase; format: biochemical; details: for LipE: Purified NHE; for IC50: purified HNE, read-out: IC50
Experimental: Serially diluted compounds in DMSO were dispensed into a 384-well black opaque plate by Echo dispenser. 0.1 μg/mL human neutrophil elastase (EPC, Catalog# SE563, Owensville, Ms.) or human sputum diluted with assay buffer (100 mM HEPES, 500 mM NaCl, 0.02% Tween 20) was added into the 384-well plate, and was incubated with different compounds at different concentrations for 30 minutes at room temperature. The final concentration of DMSO in the reaction was 0.1%. […] Slope of fluorescence intensity vs. time representing the Vmax of enzyme activity was calculated with MARS software. % relative inhibition was calculated as: […]
(§1) IC50 was calculated based on the % relative inhibition curve using log(agonist) vs. response (three parameters) method with Prism software. All experiments were performed in triplicate for at least three independent times.

[2] = biological target: T1, human neutrophil elastase; experiment: Time dependence of elastase inhibition; format: biochemical
Experimental: The procedure for the elastase inhibition assay was followed with slight modifications. 0.1 μg/mL human neutrophil elastase was incubated with a range of concentrations of inhibitors for 5, 15, 30 and 60 minutes before substrate MeOSuc-AAPV-AMC of 100 μM final concentration was added. Enzyme kinetics were read on PheraSTAR plate reader and IC50 was calculated with the method described above.

[3] = biological target: elastase in COPD patient sputum (Homo sapiens (Human), UniProt P08246); experiment: Elastase inhibition assay in COPD patient sputum; format: biochemical
Experimental: Serially diluted compounds in DMSO were dispensed into a 384-well black opaque plate by Echo dispenser. 0.1 μg/mL human neutrophil elastase (EPC, Catalog# SE563, Owensville, Ms.) or human sputum diluted with assay buffer (100 mM HEPES, 500 mM NaCl, 0.02% Tween 20) was added into the 384-well plate, and was incubated with different compounds at different concentrations for 30 minutes at room temperature. The final concentration of DMSO in the reaction was 0.1%. Elastase substrate MeOSuc-AAPV-AMC (Bachem, Catalog #I-1270, Torrance, CA) of 100 μM final concentration was then added into the reaction system just before enzyme kinetics were read on PheraSTAR plate reader at excitation of 380 nm and emission of 460 nm with a 3-minutes interval for 30 minutes in total. Slope of fluorescence intensity vs. time representing the Vmax of enzyme activity was calculated with MARS software. % relative inhibition was calculated as: […]
as §1
Human sputum was purchased from Discovery Life Sciences (Los Osos, CA). Human sputum was diluted 1:10 in volume with assay buffer (100 mM HEPES, 500 mM NaCl, 0.02% Tween 20) followed by vigorous vortexing. The 1:10 diluted human sputum was further diluted into 1:30, 1:90, 1:270, 1:810, and 1:2430. The elastase concentration was determined by elastase inhibition assay as described above. Specifically, a series of standards of human neutrophil elastase (starting at 2 μg/mL and further diluted 1:2 in volume) were prepared in the assay buffer. The samples and standards were plated in a 384-well black solid bottom plate; the substrate MeOSuc-AAPV-AMC of 100 μM final concentration was then added into the reaction system just before enzyme kinetics were read on PheraSTAR plate reader as mentioned above. The slope of enzymatic kinetic reading was calculated by MARS software. The elastase levels of the human sputum were calculated based on the standard curve.

[4] = biological target: T1, human neutrophil elastase; experiment: Elastase inhibition assay, purified human neutrophil elastase; format: biochemical; details: purified HNE
Kinetic Solubility Test = format: physicochemical; details: for solubility kinetic at 24 h: aqueous buffer, kinetic from dmso stock, phosphate buffer pH 6.8, 24 h; for Kinetic solubility (pH 6.8): summary table
Experimental: The stock solution of each compound (10 μL; 10 mM in DMSO) was diluted with phosphate buffer solution (490 μL; 50 mM, pH 6.8). The resulting mixture was shaken for 24 h. Samples were then filtered.

in vitro = details: mouse, pH 7.4; for Extraction ratio / Microsomal stability (Mouse ER) / Remaining (*NCF = 60min) / Remaining (T = 60 min): 1 μM; for Microsomal stability (Mouse ER) / Remaining (*NCF = 60min) / Remaining (T = 60 min) / CLint scaled at 1 μM / half-life at 1 μM / microsomal CLint at 1 μM: microsomes; for Remaining (*NCF = 60min) / Remaining (T = 60 min): 1 h
Experimental: 100 mM potassium phosphate buffer, pH 7.4. • 2. 10 mM MgCl2 • 3) Compound Dilution:
Intermediate solution was prepared by diluting 5 μL of compound or control stock solution (10 mM in DMSO) with DMSO (45 μL) and 1:1 Methanol/Water (450 μL) (concentration=100 μM, 45% MeOH). Working solution was prepared by diluting 50 μL of the intermediate solution with 450 μL of 100 mM potassium phosphate buffer, pH=7.4 (centration=10 μM, 4.5% MeOH). • 4) NADPH regenerating system (final Isocitric dehydrogenase concentration=1 unit/mL at incubation) comprised:
10 μL/well of compound working solution or control working solution was added to all plates (T0, T5, T10, T20, T30, T60, NCF60) except the matrix blank. 80 μL/well of microsome solution was added to every plate. The mixtures of microsome solution and compound were incubated at 37° C. for about 10 min. 10 μL/well of NADPH regenerating system (pre-warmed to 37° C.) was then added to every plate to start the reaction. […] For NCF60 (abbreviation of no co-factor) no NADPH regenerating system was added, but was replaced by 10 μL/well of potassium phosphate buffer (100 mM, pH 7.4); the resulting mixture was incubated at 37° C. for 1 h.
The reactions were then terminated with the stop solution (cold at 4° C.) containing 100 ng/mL Tolbutamide and 100 ng/mL Labetalol ([…]). The sampling plates were shaken for approximately 10 minutes, then were centrifuged at 4000 rpm for 20 min at 4° C. While centrifuging, 8 new 96 well plates were loaded with […] of HPLC grade water. 100 μL of supernatant was finally added to 300 μL of HPLC grade water and mixed for LC/MS/MS analysis.
The equation of first order kinetics was used to calculate T1/2 and CIint(mic): […]

[5] = 5 min incubation with inhibitor
[6] = 15 min incubation with inhibitor
[7] = 30 min incubation with inhibitor
[8] = 60 min incubation with inhibitor

T1 sequence (P08246 30-247): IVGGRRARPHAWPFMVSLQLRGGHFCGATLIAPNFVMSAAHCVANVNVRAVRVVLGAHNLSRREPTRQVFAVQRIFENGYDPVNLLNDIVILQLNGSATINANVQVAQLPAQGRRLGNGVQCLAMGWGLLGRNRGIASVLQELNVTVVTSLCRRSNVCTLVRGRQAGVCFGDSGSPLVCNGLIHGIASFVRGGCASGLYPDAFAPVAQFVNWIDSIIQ
Sequence of elastase in COPD patient sputum (P08246 30-267): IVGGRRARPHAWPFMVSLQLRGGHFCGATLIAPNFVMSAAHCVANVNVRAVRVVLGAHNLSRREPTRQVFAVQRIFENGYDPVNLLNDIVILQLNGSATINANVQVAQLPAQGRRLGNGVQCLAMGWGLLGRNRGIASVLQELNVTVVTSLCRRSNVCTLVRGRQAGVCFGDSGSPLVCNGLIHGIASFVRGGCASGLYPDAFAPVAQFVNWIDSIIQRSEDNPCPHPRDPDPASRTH

In the case of `CC(C)[C@H](NC(=O)[C@@H]1CCCN1C(=O)[C@@H](NC(=O)c1ccc(C(=O)NS(=O)(=O)c2ccc(Cl)cc2)cc1)C(C)C)B(O)O` [Compound 51, (1-((S)-1-((4-(((4-chlorophenyl)sulfonyl)carbamoyl)benzoyl)-L-valyl)pyrrolidine-2-carboxamido)-2-methylpropyl)boronic acid], the “inhibitory activity against HNE (in words)” value [1] is reported as “substantially enhanced potency”, the LipE [1] is reported as 7.33 and the “inhibitory activity against HNE (in words)” value ([1]; listed as mCBK 320) is reported as “highly potent”. The IC50 [1] was 0.03 nM, the IC50 [2, 5] was 0.027 nM and the IC50 [2, 6] was 0.03 nM. The IC50 [2, 7] was 0.037 nM, the IC50 [2, 8] was 0.026 nM and the IC50 [3] was 0.0223 ± 0.0006 nM. For the same compound, the LipE [3] was 7.46, the Ki [4] was 0.034 nM and the solubility kinetic at 24 h (Kinetic Solubility Test) was > 127 µg/mL and > 200 µM. For the same compound, the “Kinetic solubility (pH 6.8)” value (Kinetic Solubility Test) was >200 μm, the Extraction ratio (in vitro) was <0.3 and the “Microsomal stability (Mouse ER)” value (in vitro) was <0.3. For the same compound, the “Remaining (*NCF = 60min)” value (in vitro) was 95.0%, the “Remaining (T = 60 min)” value (in vitro) was 85.8% and the CLint scaled at 1 μM (in vitro) was < 38 mL/min/kg. For the same compound, the half-life at 1 μM (in vitro) was > 2.42 h and the microsomal CLint at 1 μM (in vitro) was < 9.6 µL/min/mg.
For `CC(C)[C@H](NC(=O)[C@@H]1CCCN1C(=O)[C@@H](NC(=O)c1ccc(C(=O)NCC(=O)O)cc1)C(C)C)B(O)O` [Compound 52, (4-(((2S)-1-((2S)-2-((1-borono-2-methylpropyl)carbamoyl)pyrrolidin-1-yl)-3-methyl-1-oxobutan-2-yl)carbamoyl)benzoyl)glycine], the LipE [1] was 10.1, the IC50 [1] was 0.015 nM and the IC50 [2, 5] was 0.004 nM. For the same compound, the IC50 [2, 6] was 0.0047 nM, the IC50 [2, 7] was 0.0042 nM and the IC50 [2, 8] was 0.0042 nM. For the same compound, the “change of IC50 with increasing incubation times (in words)” value ([2]; between 5-60 minutes) was “remain unchanged”, the IC50 [3] was 0.0127 ± 0.0008 nM and the LipE [3] was 10.2. For the same compound, the Ki [4] was 0.0037 nM, the solubility kinetic at 24 h (Kinetic Solubility Test) was > 104 µg/mL and > 200 µM and the “Kinetic solubility (pH 6.8)” value (Kinetic Solubility Test) was >200 μm. The Extraction ratio (in vitro) was <0.3, the “Microsomal stability (Mouse ER)” value (in vitro) was <0.3 and the “Remaining (*NCF = 60min)” value (in vitro) was 103.6%. For the same compound, the “Remaining (T = 60 min)” value (in vitro) was 78.9%, the CLint scaled at 1 μM (in vitro) was < 38 mL/min/kg and the half-life at 1 μM (in vitro) was > 2.42 h. The microsomal CLint at 1 μM (in vitro) was < 9.6 µL/min/mg.
